Test results from the supplement of paper PMC11061612.

How the values were obtained:
Assay in all cases: combination Emax (second highest fraction inhibited in the dose matrix, 72 h); higher = more inhibition; extreme values may be limits of the assay
[1] = tested on: L-1236 (Hodgkin's Lymphoma)
Summary of the method: (§1)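 Bliss excess equals the observed combination effect minus the expected value EA + EB − EA·EB, where EA and EB are the effects of each agent alone. Combination Emax is the second-highest inhibition within the matrix. Inhibition was scaled from CellTiter-Glo 2.0 luminescence, with 0 set by vehicle wells and 1 by blank wells, after 72 hours of two-drug dosing of cells plated in 1536-well plates.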

[2] = tested on: HCT-15 (Colorectal Carcinoma)
Summary of the method: as §1

[3] = tested on: PC-3_[JPC-3] (Lung Adenocarcinoma)
Summary of the method: as §1

A2058 (Melanoma) = tested on: A2058 (Melanoma)
Summary of the method: as §1

[4] = tested on: SU-DHL-10 (B-Cell Non-Hodgkin's Lymphoma)
Summary of the method: as §1

[5] = tested on: PSN1 (Pancreatic Carcinoma)
Summary of the method: as §1

[6] = tested on: GP5d (Colorectal Carcinoma)
Summary of the method: as §1

[7] = tested on: RCM-1 (Colorectal Carcinoma)
Summary of the method: as §1

[8] = tested on: RERF-GC-1B (Gastric Carcinoma)
Summary of the method: as §1

[9] = tested on: VAL (B-Cell Non-Hodgkin's Lymphoma)
Summary of the method: as §1

[10] = tested on: HSC-39 (Gastric Carcinoma)
Summary of the method: as §1

[11] = tested on: OPM-2 (Plasma Cell Myeloma)
Summary of the method: as §1

[12] = tested on: NCI-H446 (Small Cell Lung Carcinoma)
Summary of the method: as §1

[13] = tested on: TE-8 (Esophageal Squamous Cell Carcinoma)
Summary of the method: as §1

[14] = tested on: SHP-77 (Small Cell Lung Carcinoma)
Summary of the method: as §1

[15] = tested on: OVMIU (Ovarian Carcinoma)
Summary of the method: as §1

[16] = tested on: FADU (Head and Neck Carcinoma)
Summary of the method: as §1

[17] = tested on: RKN (Other Solid Carcinomas)
Summary of the method: as §1

[18] = tested on: MKN45 (Gastric Carcinoma)
Summary of the method: as §1

GB-1 (Glioblastoma) = tested on: GB-1 (Glioblastoma)
Summary of the method: as §1

Structure (SMILES) | combination Emax [1] | combination Emax [2] | combination Emax [3] | combination Emax (A2058 (Melanoma)) | combination Emax [4] | combination Emax [5] | combination Emax [6] | combination Emax [7] | combination Emax [8] | combination Emax [9] | combination Emax [10] | combination Emax [11] | combination Emax [12] | combination Emax [13] | combination Emax [14] | combination Emax [15] | combination Emax [16] | combination Emax [17] | combination Emax [18] | combination Emax (GB-1 (Glioblastoma))
CC(=O)Nc1cccc(-n2c(=O)n(C3CC3)c(=O)c3c(Nc4ccc(I)cc4F)n(C)c(=O)c(C)c32)c1 [Trametinib] + Cc1nc(-c2cn3c(n2)-c2ccc(-c4cnn(C(C)(C)C(N)=O)c4)cc2OCC3)n(C(C)C)n1 [Taselisib] (first compound max 1 µM, 7x7, partner max 10 µM) | 0.513 | 0.756 | 0.882 | 1 | 0.977 | 0.946 | 0.907 | 0.871 | 0.949 | 0.424 | 1 | 1 | 0.94 | 0.782 | 0.459 | 0.973 | 0.837 | 0.544 | 0.799 | 0.845
CCN(CCO)CCCOc1ccc2c(Nc3cc(CC(=O)Nc4cccc(F)c4)[nH]n3)ncnc2c1 [AZD2811] + C[C@@H]1COCCN1C2=NC(=NC(=C2)C3(CC3)[S@](=N)(=O)C)C4=C5C=CNC5=NC=C4 [AZD6738] (first compound max 1 µM, 7x7, partner max 10 µM) | 0.595 | 0.805 | 0.304 | 0.246 | 0.985 | 0.397 | 0.845 | 0.828 | 0.439 | 0.877 | 1 | 0.71 | 0.869 | 0.781 | 0.496 | 0.457 | 0.654 | 0.206 | 0.732 | 0.366
Cn1cnc2c(F)c(Nc3ccc(Br)cc3Cl)c(C(=O)NOCCO)cc21 [Selumetinib] + C[C@@H]1COCCN1C2=NC(=NC(=C2)C3(CC3)[S@](=N)(=O)C)C4=C5C=CNC5=NC=C4 [AZD6738] (first compound max 10 µM, 7x7, partner max 10 µM) | 0.839 | 0.753 | 0.309 | 0.83 | 0.911 | 0.736 | 0.861 | 0.656 | 0.522 | 0.746 | 0.994 | 0.847 | 0.85 | 0.495 | 0.569 | 0.476 | 0.404 | 0.45 | 0.782 | 0.337
CC1(C)CCC(CN2CCN(c3ccc(C(=O)NS(=O)(=O)c4ccc(NCC5CCOCC5)c([N+](=O)[O-])c4)c(Oc4cnc5[nH]ccc5c4)c3)CC2)=C(c2ccc(Cl)cc2)C1 [Venetoclax] + C=CCn1c(=O)c2cnc(Nc3ccc(N4CCN(C)CC4)cc3)nc2n1-c1cccc(C(C)(C)O)n1 [AZD1775] (first compound max 1 µM, partner max 1 µM) | 0.865 | 0.47 | 0.427 | 0.413 | 0.967 | 0.391 | 0.795 | 0.698 | 0.753 | 1 | 1 | 0.971 | 0.943 | 0.883 | 0.733 | 0.682 | 0.491 | 0.176 | 0.765 | 0.296
Cc1cc2ncnn2cc1Nc1ncc2c(n1)n(C1CCOCC1)c(=O)n2C [AZD7648] + C[C@@H]1COCCN1C2=NC(=NC(=C2)C3(CC3)[S@](=N)(=O)C)C4=C5C=CNC5=NC=C4 [AZD6738] (first compound max 10 µM, 7x7, partner max 10 µM) | 0.689 | 0.835 | 0.426 | 0.271 | 0.878 | 0.418 | 0.822 | 0.855 | 0.457 | 0.918 | 1 | 0.822 | 0.786 | 0.75 | 0.493 | 0.528 | 0.695 | 0.225 | 0.793 | 0.544
CC1(C)CCC(CN2CCN(c3ccc(C(=O)NS(=O)(=O)c4ccc(NCC5CCOCC5)c([N+](=O)[O-])c4)c(Oc4cnc5[nH]ccc5c4)c3)CC2)=C(c2ccc(Cl)cc2)C1 [Venetoclax] + Cn1cnc2c(F)c(Nc3ccc(Br)cc3Cl)c(C(=O)NOCCO)cc21 [Selumetinib] (first compound max 1 µM, 7x7, partner max 3 µM) | 0.731 | 0.156 | 0.173 | 0.493 | 0.072 | 0.622 | 0.71 | 0.571 | 0.27 | 1 | 0.936 | 0.385 | 0.198 | 0.457 | 0.455 | 0.479 | 0.364 | 0.291 | 0.65 | 0.0816
COc1cccc(OCCCN)c1-c1cc(Nc2cnc(C#N)cn2)n[nH]1 [Prexasertib] + Cc1cc2ncnn2cc1Nc1ncc2c(n1)n(C1CCOCC1)c(=O)n2C [AZD7648] (first compound max 1 µM, 7x7, partner max 10 µM) | 0.776 | 0.935 | 0.324 | 0.444 | 0.999 | 0.461 | 0.964 | 0.796 | 0.552 | 0.932 | 1 | 0.912 | 0.97 | 0.937 | 0.862 | 0.624 | 0.851 | 0.658 | 0.811 | 0.458
CC1(C)CCC(CN2CCN(c3ccc(C(=O)NS(=O)(=O)c4ccc(NCC5CCOCC5)c([N+](=O)[O-])c4)c(Oc4cnc5[nH]ccc5c4)c3)CC2)=C(c2ccc(Cl)cc2)C1 [Venetoclax] + CCN(CCO)CCCOc1ccc2c(Nc3cc(CC(=O)Nc4cccc(F)c4)[nH]n3)ncnc2c1 [AZD2811] (first compound max 1 µM, 7x7, partner max 1 µM) | 0.718 | 0.178 | 0.182 | 0.402 | 0.807 | 0.222 | 0.513 | 0.372 | 0.298 | 1 | 0.981 | 0.689 | 0.894 | 0.396 | 0.64 | 0.289 | 0.219 | 0.176 | 0.588 | 0.094
COc1cccc(OCCCN)c1-c1cc(Nc2cnc(C#N)cn2)n[nH]1 [Prexasertib] + C[C@@H]1COCCN1C2=NC(=NC(=C2)C3(CC3)[S@](=N)(=O)C)C4=C5C=CNC5=NC=C4 [AZD6738] (first compound max 1 µM, 7x7, partner max 10 µM) | 0.799 | 0.95 | 0.426 | 0.436 | 1 | 0.536 | 0.967 | 0.862 | 0.543 | 0.952 | 1 | 0.909 | 0.975 | 0.933 | 0.836 | 0.596 | 0.918 | 0.577 | 0.822 | 0.691
Cc1cc2ncnn2cc1Nc1ncc2c(n1)n(C1CCOCC1)c(=O)n2C [AZD7648] + O=C(c1cc(Cc2n[nH]c(=O)c3ccccc23)ccc1F)N1CCN(C(=O)C2CC2)CC1 [Olaparib] (first compound max 10 µM, 7x7, partner max 10 µM) | 0.238 | 0.501 | 0.19 | 0.0679 | 0.16 | 0.31 | 0.28 | 0.125 | 0.228 | 0.601 | 0.267 | 0.294 | 0.273 | 0.184 | 0.233 | 0.306 | 0.237 | 0.189 | 0.264 | 0.23
CN(CCO)CC[C@H](CSc1ccccc1)Nc1ccc(S(=O)(=O)NC(=O)c2ccc(N3CCC([C@@H](O)c4ccccc4-c4ccc(Cl)cc4)CC3)cc2)cc1S(=O)(=O)C(F)(F)F [AZD4320] + CN(C)CCCOc1ccc(-c2ccc3ncc4c(c3c2)n(C2CCOCC2)c(=O)n4C)cn1 [AZD0156] (first compound max 1 µM, 7x7, partner max 1 µM) | 0.992 | 0.111 | 0.238 | 0.103 | 0.144 | 0.315 | 0.323 | 0.435 | 0.379 | 1 | 0.279 | 0.687 | 0.663 | 0.181 | 0.585 | 0.771 | 0.124 | 0.102 | 0.316 | 0.0923
CCN(CCO)CCCOc1ccc2c(Nc3cc(CC(=O)Nc4cccc(F)c4)[nH]n3)ncnc2c1 [AZD2811] + C=CCn1c(=O)c2cnc(Nc3ccc(N4CCN(C)CC4)cc3)nc2n1-c1cccc(C(C)(C)O)n1 [AZD1775] (first compound max 1 µM, partner max 1 µM) | 0.74 | 0.743 | 0.413 | 0.15 | 1 | 0.401 | 0.735 | 0.461 | 0.816 | 0.844 | 0.985 | 0.809 | 0.87 | 0.781 | 0.415 | 0.463 | 0.608 | 0.281 | 0.631 | 0.332
